Reference: patent US6593365B1, “Diflunisal esters and related compounds” (The University of Queensland, priority 1997, dated 2003)
pEC50: −log10 of the molar value. Read-outs that look alike come from different tables or passages of the source. Marks after values point to notes of the source that are not given here.

Legend:
[1] = Intrinsic (maximum) solubility in water at pH 1.5; assay type: physicochemical; conditions: water at pH 1.5, 25 1° C.; U = Undetectable
Method: The pH conditions were chosen to ensure that the solubility of the unionised species was estimated. […] Lea & Febiger/Philadelphia. […] […] The solvent (9.9 mL) was then added to the test tube. […] The test tube was sonicated for 15 minutes and centrifuged for 10 minutes (3000 g at 25° C.). An aliquot was filtered (Minisart 0.45 μm filter, Satorius) and diluted with HPLC mobile phase, then assayed. The tube was stored carefully in a 25° C. water bath after sampling and the remaining suspension was again sonicated and the process repeated 7 times at four hourly intervals. In these assays, standard curves were prepared by directly dissolving the esters in mobile phase. Concentrations for standard curves ranged from 1-50 μg/mL for all compounds. Furthermore, a manual injector (Waters Model U6K) was used (20 μL sample loop) which ensured that 20 μL was consistently injected onto the column and precluded the need for an internal standard.

[2] = tested on: human platelet rich plasma; assay: Platelet aggregation induced by arachidonic acid; assay type: cell-based; conditions: compound 600 µM, 37° C., arachidonic acid 200 µM
Method: Platelet aggregation studies were carried out using a single channel Lumiaggregometer (Chrono-Log Company, Haverton, Pa.) at 37° C. using human platelet-rich and platelet-poor plasma. Platelet-rich plasma (PRP) with a platelet concentration of […] (measured with a Coulter counter) was prepared by centrifuging 3.8% citrated […] (1:9) at 1,500 rpm using a (Beckman) benchtop centrifuge at room temperature for 15 minutes. Platelet-poor plasma (PPP) was prepared by further centrifuging residual blood from platelet-rich plasma at 3,000 rpm for 30 minutes. Platelet-poor plasma was also confirmed b y Coulter counting for platelet content.
Platelet aggregation studies were preceded by pipetting 0.4 mL platelet-rich plasma into a stirred aggregometer tube and calibrate to 90% of recorder. Platelet-poor plasma was set to calibrate at 10% of recorder. Platelet aggregation was initiated by the addition of a arachidonic acid (Sigma) or ADP (Sigma).
10 mM solutions of each compound (TABLE 6) were prepared in 1 mL of normal saline solution (containing 4% BSA) before use. An aliquot (400 μL) of platelet-rich plasma was pipetted into a stirred aggregometer tube at 37° C. and 30 μL of test sample added simultaneously. This mixture was preincubated for varying period (3 to 45 minutes), then arachidonic acid (AA) was added (final conc.=200 μM) to initiate platelet aggregation. If no aggregation occurred, 20 μM ADP was added to confirm the vitality of the platelets (if the platelets are vital, ADP will induce this AA-test sample-plasma mixture to aggregate). This procedure is necessary to investigate whether the non-aggregation phenomenon is due to drug inhibition or simply due to inviable platelets (unable to respond to AA). The degree of aggregation was measure by calculating the area under the turbidimetric response curve (AUC).

[3] = Maximum solubility in 2% BSA Krebs-Henseleit buffer (pH 7.4); assay type: physicochemical; conditions: 25 1° C.
Text: The intrinsic solubility of diflunisal esters is extremely low (TABLE 2). The more lipophilic the analogue, the higher the solubility of solute under these conditions.

[4] = In vitro non-enzymatic hydrolysis in Krebs-Henseleit buffer; assay type: physicochemical; conditions: pH 7.4, 25° C., n=5
Method: These experiments were carried out both in Krebs-Henseleit buffer containing either no protein or 2% w/v BSA (bovine serum albumin, fraction V, Sigma) at pH 7.4 and 25±1° C.
Solutions of the derivatives in Krebs buffer (10 mL) was prepared in siliconised glass tubes. Each solution was sonicated for 5 minutes and centrifuged for 5 minutes (3000 g) at 25° C. to ensure maximum dissolution and to sediment any undissolved precipitate. About 7.5 mL of the supernatant was then transferred to a clean siliconised test tube and a 100 μL aliquot was removed and assayed. […] The rate of non-enzymatic hydrolysis (k) for each derivative was then estimated using the following equation: […]
where C1 is the concentration of the ester at any time (t), and C0 is the concentration of the ester at time zero. The half-life (t½) was determined using the formula: […]

[5] = tested on: superoxide generated from xanthine oxidase plus xanthine reaction; assay: Xanthine oxidase plus xanthine-induced chemiluminescence; assay type: biochemical; parameters: dose or concentration left out as unconfirmed; conditions: X: CL induced by xanthine oxidase plus xanthine
Method: To clarify the role of aspirin analogues and diflunisal esters in free radicals scavenging, the Fenton's reagent was replaced by an artificial superoxide generating system in the CL inhibition studies. This cell-free system consisted of 100 μg/mL of xanthine oxidase (Sigma) plus 0.5 μM xanthine (Sigma) (Rosen and Klebanoff, 1976, J Clin Invest 58 50-60; Cheson et al., 1976, J Clin Invest 58 789-796).
(§1) CL measurements were always done in triplicate and Student's t-test used to assess the statistical significance of the difference between measurements.

[6] = tested on: OH. generated from Fenton's reaction; assay: Luminol-dependent chemiluminescence induced by Fenton's reagent; assay type: biochemical; parameters: unit of the concentration uncertain; conditions: F: CL induced by Fenton's reagent, n=3
Method: CL was measured with a luminometer (Model 1250; LKB Wallac, Finland) and recorded in millivolts (Cheung et al., 1984, supra).
Fenton's reagent (FeSO4 and H2O2) was used as a standard reaction mixture for the generation of OH. (Lai and Piette, 1979, Tetrahedron Lett. 775-778):
Fe^+++H2O2→Fe^++++OH.+OH (1)
The initial reaction mixture consisted of 20 μL of 3.8 mM FeSO4.7H2O, 20 μL of 5 mg/mL luminol (Sigma), and 2 mL of 1 mM phosphate buffer in a 3 mL polystyrene cuvette. Twenty microlitres of 320 mM H2O2 was added to initiate the Fenton's reaction.
A known concentration of the ethanolic (≲1%) aspirin analogue or diflunisal ester's stock solution was added to the 1 mM phosphate buffer to prepare solutions with a final concentration of 50 μM, 250 μM or 500 μM. Twenty microlitres of these test samples was added onto the cuvette which contained the initial reaction mixture. H2O2 was added to induce CL reaction. The luminol-dependent CL response was recorded in mV by a potentiometric recorder.
as §1

[7] = tested on: in-situ perfused rat liver; assay: In-situ rat liver perfusions, hepatic extraction (Example 4); assay type: in vitro ADME; conditions: protein-free Krebs-Henseleit buffer as perfusate; hepatic extraction=1- hepatic availability (F)
Method: The hepatic availability (F) for the O-acyl esters of SA and DF was determined using a once through in-situ perfused rat liver preparation (Mellick and Roberts, 1996, J Pharm Pharmacol 48:738-743). Liver was perfused with protein-free Krebs-Henseleit buffer at 30 mL/min for aspirin analogues and with Krebs-Henseleit buffer containing 2% BSA for diflunisal esters studies. Since the solubilities of the diflunisal esters in protein-free media were very low, 2% BSA were used to help to solubilize these compounds. Briefly, 50 μL of a saturated solution of the particular O-acyl SA or DF in Krebs-Henseleit buffer was injected as a bolus into the portal vein cannula. Perfusate outflow samples have collected via a fraction collector over 3 min. 100 μL of these samples was assayed by HPLC to determine the residual concentration of presented ester and the quantity of phenolic metabolite (SA or DF) collected from the perfused liver. The HPLC assay was a modification of the method used by Owen et al. (1987, J Chrom B Biomed Appl 416 293-302) and Rumble et al. (1981, J Chrom 225 252-260).
The hepatic availability (F) was calculated from the ratio of the area under the first moment curve, i.e., outflow concentration time-time profile to the area under the curve for the salicylate phenolic esters, with the assistance of the Moments Calculator 2.2 program for Macintosh computer developed by Robert Purves (1994, J Pharm Sci 83:202-205).

[8] = tested on: ischaemic/reperfusion rat livers; assay: Ischaemic/reperfusion injury in rat livers (LDH release, bile production); parameters: species or system Female Sprague-Dawley rats; conditions: Rattus norvegicus
Method: Female Sprague-Dawley rats (220-250 g) were anaesthetised by interperitoneal injection of pentobarbital sodium (60 mg/kg, Boehringer Ingelhein). […] The bile duct was cannulated with a polyethylene tubing (PE-10, I.D. 0.28 mm; Clay Adams, New Jersey) and bile was collected into pre-weighed microcentrifuge tubes at 70 min intervals (in the middle of experiment and the end of experiment). The portal vein was then cannulated using a 16 G intravenous catheter and the liver was perfused via this cannula with 2% BSA Krebs-Henseleit bicarbonate buffer (pH 7.4) and oxygenated using a membrane oxygenator comprising of silastic tubing and ventilated with carbogen (95% O2/5% CO2). The perfusion system used was recirculating and employed a peristaltic pump (Cole-Parmer, Illinois).
Following a 10 min pre-ischaemia perfusion, the perfusion flow was stopped for 30 min at 37° C. with the liver being kept moist. At the end of this ischaemic phase, a known concentration of the aspirin analogue or diflunisal ester's solution (in 2% BSA Krebs-Henseleit buffer) was added into the perfusate prior to the perfusion being resumed for another 100 min. Outflow fractions were collected up to 140 min. A biochemistry autoanalyzer (Hitachi, model 747; Tokyo, Japan) was employed to determine the level of enzyme (LDH) release.
The degree of ischaemic/reperfusion injury was measured by calculating the area under the LDH release ([…]) versus time curve (AUC). […] The efficacy of each compound is expressed in terms of ED50 which represents the molar dose for 50% reduction of LDH release compared to the control. The comparison of bile production between the first stage of experiment (the first 70 min) and the second stage of experiment (the last 70 min) is also used as index of liver function during an experiment.

Maximum solubility [1] [mM] | Maximum solubility [3] [mM] | Maximum solubility ([3]; mean standard deviation (n=3)) [µg/mL] | Hydrolysis rate constant (k) ([4]; Krebs-Henseleit buffer 0% BSA, U = Undetectable) [hour^1] | Hydrolysis rate constant (k) ([4]; Krebs-Henseleit buffer 2% BSA) [hour^1] | CL inhibition (%) [5] [%] | Hepatic extraction [7] | SMILES | Platelet Aggregation (% of control) ([2]; preincubation 3 minutes) | Platelet Aggregation (% of control) ([2]; preincubation 5 minutes) | Platelet Aggregation (% of control) ([2]; preincubation 8 minutes) | Platelet Aggregation (% of control) ([2]; preincubation 10 minutes) | Platelet Aggregation (% of control) ([2]; preincubation 12 minutes) | Platelet Aggregation (% of control) ([2]; preincubation 15 minutes) | Platelet Aggregation (% of control) ([2]; preincubation 20 minutes) | Platelet Aggregation (% of control) ([2]; preincubation 25 minutes) | Platelet Aggregation (% of control) ([2]; preincubation 45 minutes) | CL inhibition (%) ([6]; 2.5 (unit uncertain) compound) | CL inhibition (%) ([6]; 5 (unit uncertain) compound) | EC50 ([8]; C is the ED50 molar dose, read-out: log 1/C (converted)) [µM] | pEC50 ([8]; molar dose for 50% reduction of LDH release compared to control, 30 min ischaemia, 100 min reperfusion, read-out: ED50 (the source's name))
0.01 | 10.29 | 3150 ± 20 | – | – | – | – | CCC(=O)Oc1ccc(-c2ccc(F)cc2F)cc1C(=O)O [Compound C3D, n-propionyldiflunisal] | 96.5 ± 3.1 % of control | 89.3 ± 0.4 % of control | 67.3 ± 0.1 % of control | 49.7 ± 1.1 % of control | 19.3 ± 0.5 % of control | 0 % of control | 0 % of control | 0 % of control | 0 % of control | – | – | – | –
6.3 | – | – | 0.0147 ± 0.0025 | 0.0102 ± 0.0031 | – | – | CCC(=O)Oc1ccccc1C(=O)O [Compound C3SA, n-propionylsalicylic acid] | 0 % of control | 0 % of control | 0 % of control | 0 % of control | 0 % of control | 0 % of control | 0 % of control | 0 % of control | 0 % of control | – | – | – | –
– | – | – | – | – | 0.2 ± 0.0 | 0.05^c | O=C(O)c1ccccc1O [SA, 2-hydroxybenzoic acid, reference compound] | – | – | – | – | – | – | – | – | – | 52.9 ± 2.1 | 99.0 ± 1.0 | 72.4 | 4.14
